In patent publication US20070099879A1 (priority 2005, published 2007):
Entries after “also recorded” stand apart in the source; their conditions may differ.

Key:
[1] = tested on: retinoblastoma; conditions: 0.05 μg/d, mice; cited from earlier work
[2] = tested on: retinal EC; test: Retinal EC wound migration assay; assay type: cell-based, mouse; conditions: 10 μM calcitriol, 0, 24 and 48 hours
Procedure: (§1) Retinal EC migration was determined using both wound migration and transwell assays. […] Wound closure was monitored by phase microscopy, and digital images were obtained at different time points used for quantitative assessment of migration. For transwell migration, wells (8 μm pore size, 6.5 mm membrane; Costar) were coated with Matrigel™ (200 μg/ml) or fibronectin (2 μg/ml) in PBS on the bottom side at 4° C. overnight. The next day, inserts were rinsed with PBS, blocked in PBS containing 2% BSA for 1 h at room temperature, and washed with PBS. Cells were removed by trypsin-EDTA, counted, and resuspended at 1×10^6 cells/ml in serum-free medium. Inserts were placed in 24-well dishes (Costar) containing 0.5 ml of serum-free medium and 0. 1 ml of cell suspension was then added to the top of the insert. Cells were allowed to migrate through the filter for 3 h in a tissue culture incubator. After incubation, the cells on the top of the filter were scraped off using a cotton swab; the membrane was then fixed in 4% paraformaldehyde and stained with hematoxylin and eosin. The inserts were then mounted on a slide cell side up, and the number of cells which migrated to the bottom of the filter was determined by counting 10 high power fields at X200 magnification.

[3] = tested on: retinal endothelial cells; test: Retinal endothelial cell proliferation assay (CellTiter 96 AQueous); assay type: cell-based, mouse; conditions: for Relative Survival: relative to solvent control
Procedure: Primary mouse retinal endothelial cell (REC) cultures were prepared and maintained as described previously (Su X, et al., Isolation and characterization of murine retinal endothelial cells. Mol Vision. 2003;9:171-178). Briefly, REC were isolated from wild type or transgenic-immortomouse by collagenase digestion of retina and affinity purification using magnetic beads coated with platelet/endothelial cell adhesion molecule-1 (anti-PECAM-1). The bound cells were plated on fibronectin-coated wells and expanded. The REC were characterized for expression and localization of endothelial cell markers by fluorescence-activated cell sorting (FACS) analysis and indirect immuno fluorescence staining. The ability of these cells to form capillary like networks was assessed on matrigel™. For cell proliferation assays, retinal endothelial cell (10,000) were plated in triplicate in 96-well plates and incubated overnight. […] The degree of proliferation was assessed using the nonradioactive cell proliferation assay (CellTiter 96® AQueous; Promega, Madison, Wis.) as recommended by the supplier.

[4] = tested on: retinal EC; test: Retinal EC transwell migration assay; assay type: cell-based, mouse; conditions: 10 μM calcitriol, 3 h
Procedure: as §1, with “Cells were allowed to migrate through the filter for 3 h in a tissue culture incubator. After incubation, the cells on the top of the filter were scraped off using a cotton swab; the membrane was then fixed in 4% paraformaldehyde and stained with hematoxylin and eosin.” left out
FIG. 5C illustrate is a quantification of the transwell assay as described above. […] Cells were removed by trypsin-EDTA, counted, and resuspended at 1×10^6 cells/ml in serum-free medium. […] The inserts were then mounted on a slide cell side up and the number of cells which migrated to the bottom of the filter was determined by counting 10 high power fields at ×200 magnification. […]

[5] = Toxic effect assessment: body weight of mice during OIR; conditions: mouse, in vivo
Text: In the OIR studies, all pups had similar body weight prior to initiation of the experiment (P12) and after exposure to high oxygen (P17).

[6] = tested on: retinal endothelial cells; test: Retinal endothelial cell capillary morphogenesis in Matrigel; assay type: cell-based, mouse; conditions: 10 μM calcitriol, 18 h
Procedure: The ability of the cultured retinal endothelial cells to form capillary like networks was assessed on Matrigel™ (B D Biosciences, San Jose, Calif.). The capillary morphogenesis assays in Matrigel™ were performed as previously described (Su X, et al., Isolation and characterization of murine retinal endothelial cells. Mol Vision. 2003;9:171-178; Rothermel T A, et al., Polyoma virus middle-T-transformed PECAM-1 deficient mouse brain endothelial cells proliferate rapidly in culture and form hemangiomas in mice. J Cell Physiol. 2005;202:230-239). Briefly, 0.5 ml of Matrigel™ was added to a cold 35 mm tissue culture plate and incubated at 37° C. for at least 30 min to allow the Matrigel™ to harden. […] Cultures were monitored for 6-48 h, and images were captured in digital format after 18 h when maximum organization was observed. […] The capillary network formed by control cells began to fall apart at 24-48 h.

[7] = tested on: VEGF; test: Western blot of VEGF in whole eye extracts of P15 mice during OIR; assay type: in vivo, mouse
Procedure: Vascular endothelial growth factor (VEGF) levels were determined by Western blotting of whole eye extracts prepared from P15 mice during OIR (5 days of hyperoxia and 3 days of normoxia) when maximum levels of VEGF were expressed (Wang S, et al. Attenuation of Retinal Vascular Development and Neovascularization during Oxygen-Induced Ischemic Retinopathy in Bcl-2 -/- Mice. Developmental Biol. 2005;279:205-219). Mice were euthanized by CO2 inhalation, then eyes from 2 or 3 mice dissected, homogenized in 0.2 ml of RIPA buffer, 10 mM HEPES pH 7.6, 142.5 mM KCl, 1% NP-40, and protease inhibitor cocktail, (Roche Applied Science, Indianapolis, Ind.), sonicated briefly, and incubated at 4° C. for 20 min. […] Supernatants were transferred to a clean tube, and protein concentrations were determined using the DC Protein Assay (Bio-Rad Laboratories, Hercules, Calif., Cat. No. 500-011 1). Approximately 20 μg of protein from the centrifuged homogenates were analyzed by SDS-PAGE (4-20% Tris-Glycin gel, Invitrogen, Carlsbad, Calif.) under reducing conditions and transferred to a nitrocellulose membrane. […] For quantitative assessments, the band intensities relative to loading controls were determined by scanning the blots using the Molecular Dynamics Storm 860 Scanner and Image Quant Software (Amersham Biosciences, Piscataway, N.J.).

[8] = tested on: retinal neovascularization; test: Mouse oxygen-induced ischemic retinopathy (OIR) model, retinal neovascularization; assay type: in vivo; conditions: for inhibition of neovascularization: P17 mice
Procedure: All experimental procedures involving animals were performed according to the ARVO Statement for the Use of Animals in Ophthalmic and Vision Research. […] In this model, 7-day-old (P7) pups (8-10 pups) and their mother were placed in an airtight incubator and exposed to an atmosphere of 75±0.5% oxygen (hyperoxia) for 5 days. Incubator temperature was maintained at 23±2° C., and oxygen was continuously monitored with a PROOX model 110 oxygen controller (Reming Bioinstruments Co., Redfield, N.Y.). Mice were then brought to room air for 5 days. Maximum retinal neovascularization occurred from P12 to P17. […] The other half of the littermates was injected with 0.1 ml of mineral oil. Generally one eye from each mouse was used for histochemical analysis and the other eye for histological evaluation as outlined below. These experiments were repeated at least 3 times for each dose.
Briefly, P17 mouse eyes were enucleated and briefly fixed in 4% paraformaldehyde in phosphate buffered saline (PBS) (10 min on ice). The paraformaldehyde fixed eyes were then fixed in 70% ethanol for at least 24 h at −20° C. Retinas were dissected in PBS and then washed with PBS 3 times, 10 min each. Following incubation in blocking buffer (50% fetal calf serum, 20% normal goat serum (NGS) in PBS) for 2h, the retinas were incubated with rabbit anti-mouse collagen IV (Chemicon, diluted 1:500 in PBS containing 20% fetal calf serum, 20% normal goat serum) at 4° C. overnight. Retinas were then washed 3 times with PBS, 10 min each, incubated with a secondary antibody Alexa 594-labeled goat-anti-rabbit (Invitrogen, Carlsbad, Calif.), at 1:500 dilution prepared in PBS containing 20% FCS, 20% NGS for 2 h at room temperature, washed 4 times with PBS (30 min each), and mounted on a slide with PBS/glycerol (2vol/1vol). Retinas were viewed by fluorescence microscopy, and images were captured in digital format using a Zeiss microscope (Carl Zeiss, Chester, Va.).
Quantification of retinal neovascularization on P17 was performed by counting vascular cell nuclei anterior to the […] (Wang S, et al., Attenuation of Retinal Vascular Development and Neovascularization during Oxygen-Induced Ischemic Retinopathy in Bcl-2 -/- Mice. Developmental Biol. 2005;279:205-219). Briefly, mice eyes were enucleated, fixed in formalin for 24 h, and embedded in paraffin. Serial sections (6 μm), each separated by at least 40 μm, were taken from around the region of the optic nerve. The hematoxylin- and PAS-stained sections were examined in masked fashion, by two independent observers without the knowledge of the samples identity, the presence of neovascular tufts projecting into the vitreous from the retina. […]

## C=C1/C(=C\C=C2/CCC[C@]3(C)[C@@H]([C@H](C)CCCC(C)(C)O)CC[C@@H]23)C[C@@H](O)C[C@@H]1O [calcitriol, 1α,25-dihydroxyvitamin D3]
[1]
  decrease in retinal involvement of retinoblastoma compared to controls: 50%
[2]
  retinal EC wound migration vs ethanol control: not significant
[3]; 0.25 μM calcitriol, 3 days
  Relative Survival: 108%
[3]; 0.50 μM calcitriol, 3 days
  Relative Survival: 111%
[3]; 10.00 μM calcitriol, 3 days
  Relative Survival: 111%
[3]; 50.00 μM calcitriol, 3 days
  Relative Survival: 87%
[3]; 100.00 μM calcitriol, 3 days
  Relative Survival: 12%
[3]; Mus musculus, Endothelial cell, 72 h, read-out: inhibition of retinal endothelial cell proliferation, 100 μM calcitriol, 3 days
  inhibition at 100 µM: 90%
[3]; calcitriol 0-10 μM, 9 days
  effect on retinal endothelial cell proliferation: no effect; also recorded: minimal effects
[3]; calcitriol 50 μM and higher
  effect on retinal endothelial cell proliferation: significant inhibition; also recorded: Significant toxicity
[3]; calcitriol up to 10 μM, 3 days
  effect on retinal endothelial cell proliferation: No significant inhibition
[3]; calcitriol up to 10 μM, 3 days, listed as Calcitriol
  effect on retinal endothelial cell proliferation: no effect
[4]
  retinal EC migration through filter coated with Matrigel: no significant effect
[4]; compared to solvent control (not shown)
  retinal EC migration through filters coated with fibronectin: slightly enhanced
[5]
  Body Weight: 5.04 ± 0.23
  mortality during OIR experiments: None of the experimental animals died
[6]
  capillary morphogenesis in Matrigel: completely inhibited; also recorded: completely abolished
[6]; listed as Calcitriol
  capillary morphogenesis in Matrigel: no capillaries are observed
[7]; 0.025 μg (~5 μg/Kg), n = 3, P15 eye extracts, relative to β-catenin, mean ± SD, control 0.39 ± 0.08
  Relative Intensity of Expressed VEGF: 0.37 ± 0.06 (SD)
[7]; 5 μg/Kg, P15 mice during OIR
  difference in VEGF expression between control and calcitriol-treated eyes: no significant difference
[8]; 0.025 μg (~5 μg/Kg), n = 4, mean ± SD, P17, control 39.9 ± 6.4, P < 0.001
  MEAN NUMBER OF ENDOTHELIAL NUCLEI: 3.8 ± 2.2 (SD)
[8]; 0.5 μg/Kg calcitriol, vs control
  inhibition of neovascularization: 60%
[8]; 2.5 μg/Kg calcitriol, vs control
  inhibition of neovascularization: 75%
[8]; 5 μg/Kg (0.025 μg) calcitriol i.p. per day P12 to P17, P17 mice, vs control
  inhibition of retinal neovascularization: greater than 90%
